Laboratory results as given in PMC9964404, “Molecular Modeling and In Vitro Evaluation of Piplartine Analogs against Oral Squamous Cell Carcinoma” (Molecules, 2023).
Like-named read-outs stand apart in the source and are kept apart here.

Experiments:
[1] = test system: SCC9 cells; assay: MTT cell viability (cytotoxicity) assay, SCC9; format: cell-based, human; details: Homo sapiens
Procedure: (§1) SCC cells (SCC9 and SCC4), derived from human tongue OSCC, were obtained by (ATCC® CRL-1629 and CRL-1624) and maintained in DMEM/F12 1:1 medium (Dulbecco’s modified Eagle’s medium and Ham’s F12 medium, Gibco (Thermo Fisher, Waltham, MA, USA), supplemented with 10% (v/v) FBS (Fetal Bovine Serum; Invitrogen, Thermo Fisher, Waltham, MA, USA) and 400 ng/mL hydrocortisone (Sigma-AldrichCo., St. Louis, MO, USA). Primary normal gingival fibroblast human (PCS201 018TM) and other tumor cells B16-F10 (CRL-6475), Hep G2 (HB-8065), and HT-29 (HTB-38) were also obtained at ATCC and maintained in DMEM supplemented with 10% (v/v) FCS. Cells were cultured in a humidified environment containing 5% CO2 at 37 °C. For all experiments, the compounds were solubilized in DMSO (Sigma-Aldrich) for a final concentration of 100 mM. From this dilution, other concentrations were made to carry out the cell viability assay. Carboplatin (Fauldcarbo®; Libbs Farmacêutica, São Paulo, SP, Brazil) was used as a control antitumor compound.
(§2) The viability of cancer cells and primary fibroblasts was tested using the MTT assay as described in MACHADO et al., 2021 [49]. Briefly, cancer cells (5 × 10^3 cells/well) were plated in duplicate in a 96-well plate, as indicated. DMSO was diluted in culture medium at the same concentrations and was used as a negative control, representing 100% cell viability. After 48 h of treatment, cells were incubated for 3.5 h with 5 mg/mL of MTT reagent (3,4,5-dimethiazol-2,5-diphenyltetrazoliumbromide) (Sigma-Aldrich Co., St. Louis, MO, USA) diluted in culture medium. Subsequently, the formazan crystals were dissolved by MTT solvent (50% Methanol and 50% DMSO), and the absorbance was read at 560 nm using the EPOCH microplate spectrophotometer (BioTekInstruments, Winooski, VT, USA).
(§3) IC50 values for the MTT assay were obtained by non-linear regression using GraphPad Prism 5.0 software (GraphPad, San Diego, CA, USA) from at least three independent experiments. Data are presented as means, ± standard deviation (SD). A log dose response (inhibitor) vs. response curve using the least square method was used to determine the IC50 and SD of the data. The selectivity index was calculated as: S.I. = IC50 of the compound in fibroblasts/IC50 of the same compound in tumor cells.

[2] = test system: Primary Gingival Fibroblast; assay: MTT cell viability assay, normal fibroblasts; format: cell-based, human; details: Homo sapiens, Fibroblast, 48 h treatment
Procedure: as §1, §2, §3

[3] = test system: SCC4 cells; assay: MTT cell viability assay, SCC4; format: cell-based, human; details: Homo sapiens, SCC-4, 48 h treatment, read-out: SCC4 IC50
Procedure: as §1, §2, §3

[4] = test system: Oral Tumor Cells (SCC9, SCC4); assay: MTT cell viability assay, average of OSCC lines SCC9 and SCC4; format: cell-based, human; details: Homo sapiens
Procedure: as §1, §2
(§4) IC50 values for the MTT assay were obtained by non-linear regression using GraphPad Prism 5.0 software (GraphPad, San Diego, CA, USA) from at least three independent experiments. […] The selectivity index was calculated as: S.I. = IC50 of the compound in fibroblasts/IC50 of the same compound in tumor cells.

[5] = test system: B16-F10 (melanoma); assay: MTT cell viability assay, B16-F10; format: cell-based; details: Mus musculus
Procedure: as §1, with “For all experiments, the compounds were solubilized in DMSO (Sigma-Aldrich) for a final concentration of 100 mM. From this dilution, other concentrations were made to carry out the cell viability assay. Carboplatin (Fauldcarbo®; Libbs Farmacêutica, São Paulo, SP, Brazil) was used as a control antitumor compound.” left out
(§5) The viability of cancer cells and primary fibroblasts was tested using the MTT assay as described in MACHADO et al., 2021 [49]. […] Subsequently, the formazan crystals were dissolved by MTT solvent (50% Methanol and 50% DMSO), and the absorbance was read at 560 nm using the EPOCH microplate spectrophotometer (BioTekInstruments, Winooski, VT, USA).
as §4

[6] = test system: HEP G2 (hepatocarcinoma); assay: MTT cell viability assay, HEP G2; format: cell-based
Procedure: as §1, with “For all experiments, the compounds were solubilized in DMSO (Sigma-Aldrich) for a final concentration of 100 mM. From this dilution, other concentrations were made to carry out the cell viability assay. Carboplatin (Fauldcarbo®; Libbs Farmacêutica, São Paulo, SP, Brazil) was used as a control antitumor compound.” left out
as §5, §4

[7] = test system: HT-29 (colon adenocarcinoma); assay: MTT cell viability assay, HT-29; format: cell-based
Procedure: as §1, with “For all experiments, the compounds were solubilized in DMSO (Sigma-Aldrich) for a final concentration of 100 mM. From this dilution, other concentrations were made to carry out the cell viability assay. Carboplatin (Fauldcarbo®; Libbs Farmacêutica, São Paulo, SP, Brazil) was used as a control antitumor compound.” left out
as §5, §4

[8] = Hemolysis assay; format: cell-based; details: human erythrocytes
Procedure: Human blood was used as approved by the Research Ethics Committee of the Fluminense Federal University–Nova Friburgo, RJ (CAAE: 43134721.4.0000.5626). The erythrocytes were collected by centrifugation at 1500 rpm for 15 min, washed with PBS (phosphate buffer saline) and 10 mM glucose, and counted in an automatic cells counter (Thermo Fisher, Waltham, MA, USA). The erythrocytes were then plated in 96-well plates at a concentration of 4 × 10^8/well in triplicate, and 10 µL of the compounds were added at a final concentration of 1000 µM in PBS with glucose (final volume of 100 µL). Ten microliters of PBS were used as negative control and 10 µL of PBS with 0.1% Triton ×100 as a positive control. Data reading was performed with EPOCH (BioTek Instruments, Winooski, VT, USA) at 540 nm absorbance, and statistical data were generated with the GRAPHPAD Prism 5.0 program (Intuitive Software for Science, San Diego, CA, USA).

[9] = test system: SCC9 cells; assay: Phosphatidylserine exposure analysis (annexin V-FITC / P.I., flow cytometry); format: cell-based, human; details: SCC9, 48 h
Procedure: Cells of the SCC9 cell line were plated in six-well plates (5 × 10^5 cells/well), trypsinized 48 h after treatment, labeled using the Annexin V-FITC Apoptosis Detection Kit according to the manufacturer’s protocol (#BMS500FI/300, Invitrogen), and analyzed by flow cytometry.

[10] = test system: SCC9 cells; assay: SubG1 analysis (propidium iodide DNA content); format: cell-based, human; details: SCC9, 48 h
Procedure: (§6) To evaluate the action of the compound 9 on the cell cycle, cells of the SCC9 lineage were plated in a six-well plate (5 × 10^5 cells/well) as described in LUCENA et al., 2016. After 48h of treatment, cells were trypsinized and stained with propidium iodide (75 µM; Sigma) in the presence of NP-40 (Sigma). DNA content was analyzed by collecting 10,000 events using a FACScalibur flow cytometer. Data were analyzed using CellQuest (BD Biosciences) and FlowJo (Tree Star Inc., Ashland, OR, USA) software. (Version 9.9.4).

[11] = test system: SCC9 cells; assay: Caspase 3/7 analysis (flow cytometry); format: cell-based, human; details: SCC9, 2 × IC50, 48 h
Procedure: For active caspase detection, 5 × 10^4 SCC9 cells were plated in a 24-well plate containing 1 mL of DMEM/F12 with 10% FBS per well. CellEvent™ Caspase-3/7 reagent (#R37111, Invitrogen) was diluted in culture medium according to the manufacturer’s instructions. Twenty-four hours after plating, cells were treated with Caspase-3/7 reagent and 2× IC50 of 9 or DMSO as a control. Cells were analyzed by flow cytometry after 48 h of treatment.

[12] = test system: SCC9 cells; assay: Cell cycle analysis (propidium iodide); format: cell-based, human; details: SCC9, 48 h
Procedure: as §6

[13] = test system: mouse erythrocytes; assay: Hemolytic activity in mouse erythrocytes; format: cell-based; details: mouse erythrocytes as printed

In the case of `COc1ccc(COC(=O)c2cc(OC)c(OC)c(OC)c2)cc1` [Compound 9, 4-Methoxy-benzyl 3,4,5–trimethoxybenzoate], the IC50 ([1]; SCC-9, 48 h, read-out: SCC9 IC50 (µg/mL)) is reported as 15.4 µg/mL, the IC50 ([1]; SCC-9, 48 h treatment, MTT, read-out: SCC9 IC50) is reported as 46.2 µM and the IC50 ([2]; read-out: Primary Gingival Fibroblast IC50) is reported as 741 µM. For the same compound, the IC50 ([2]; read-out: Primary Gingival Fibroblast IC50 (µg/mL)) was 246 µg/mL, the IC50 [3] was 49.8 µM and the IC50 [4] was 48 µM. It also gave an IC50 [5] of 73.3 µM, an IC50 ([6]; HEP G2) of 6.63 µM and an IC50 ([6]; Homo sapiens, HepG2, HEP G2) of less than 10 µM. The IC50 ([7]; HT-29) was 7.31 µM, the IC50 ([7]; Homo sapiens, HT-29, HT-29) was less than 10 µM and the hemolysis at 1000 µM [8] was less than 1%. For the same compound, the “annexin V single- and/or double-positive (PI+) labeling” value [9] was ~ 17%, the “increase in annexin V labeling versus control” value [9] was “four-fold increase” and the “DNA fragmentation (SubG1 DNA content)” value [10] was ~ 21%. For the same compound, the “Active caspase 3/7” value [11] was ~ 66%, the “Cycle Phase % G2/M” value [12] was ~ 59% and the hemolytic activity [13] was “did not reveal hemolytic activity”.
